This experiment concerns S. mutans (Sm) biofilm. The experiment is described as follows: S. mutans biofilm formation, crystal violet staining. The format is cell-based, Streptococcus mutans (ATCC 25175). The settings on record: D-gal 2 mM. On the procedure: 2 mL (2×10^7/ml) of the culture broth of a representative cariogenic bacterium S. mutans (Sm) and 2 mL (2×10^7/ml) of the culture broth of one of normal oral flora, S. oxalis (SO) were added to a saliva-coated glass slip (round, 12 mm radius), respectively and cultured with 0 mM or 2 mM of D-galactose to form biofilms. The formed biofilms were stained with crystal violet in the same manner as in Examples 3-6 to test biofilm formation according to the presence of D-galactose. Further, the biofilms were stained with fluorescent materials using the live/dead-BacLight viability kit (Invitrogen, Grand Island, N.Y., USA), followed by analysis. For comparison, 2 μM of the furanone compound was used instead of D-galactose to perform the same test.

Take `O=C[C@H](O)[C@@H](O)[C@@H](O)[C@H](O)CO` [D-gal, D-galactose]: the OD590 nm (Sm on saliva-coated glass slip, Sm control 0.48) came to 0.37. Besides, for the setting “crystal violet, furanone compound 2 μM”, the “inhibitory effect on Sm biofilm formation, in words” value is listed as “significant inhibitory effect”.
